From patent US20120046321A1, “METHODS OF TREATING ATRIAL FIBRILLATION WITH P38 INHIBITOR COMPOUNDS” (INTERMUNE, INC., priority 2005, published 2012) come the findings set out here.

The test deals with canines with ventricular tachypacing (VTP)-induced congestive heart failure (CHF). Nature of the test: Histologic study of atrial fibrosis (Sirius red). It is filed as in vivo, canine. An excerpt:
Briefly, 15 adult mongrel canines (weight 20 to 32 kgs) were divided into 3 groups (n=5 in each group) as follows: Group 1: Normal; Group 2: CHF canines not treated with PFD (or CHF); and Group 3: CHF canines treated with PFD (or CHF+PFD). […] The CHF and CHF+PFD canines underwent placement of a permanent single-chamber pacemaker with the pacing lead positioned in the right ventricular apex followed by radiofrequency catheter ablation of the AV junction to create complete heart block. Canines in the CHF and CHF+PFD groups underwent 3 weeks of VTP at a rate of 220 bpm. Oral PFD (800 mg three times a day) (InterMune, Brisbane, Calif.) was started 2 days prior to the initiation of VTP and was given for the full duration of the pacing period. At the conclusion of the EP study, the animals were euthanized. Atrial tissue samples were fixed in 10% neutral buffered formalin. The samples were processed, embedded in paraffin, and sectioned into 4- to 5-μm-thick sections. The sections were stained in either H&E, Masson's trichrome, or Sirius red. […] To quantify fibrosis, the red pixel content of digitized images (Sirius red-stained) was measured relative to the total tissue area (red and green pixels) with the Adobe Photoshop 7.0 software package. Areas containing blood vessels and perivascular interstitial cells were excluded from fibrosis quantification. […]

SMILES strings stand for the structures.

With `Cc1ccc(=O)n(-c2ccccc2)c1` [PFD, 5-methyl-1-phenyl-2-(1H)-pyridone], for the setting “Sirius red stained LA sections”, the “LA interstitial fibrosis, histologic finding” value was “significant attenuation”. Besides, the “Percentage LA fibrosis” value (Sirius red, p<0.002 vs. CHF group (15.4±2.3%), Normals 3.2±1.0%) is 8.3±3.0%.
